Each structure is given as a SMILES string. “And” between values parts separate entries of the source, which are not always exact repeats. Identical values can stand only once.

The test relates to Swiss mice, Sarcoma 180 sc, mean tumor weight T/C. As to the kind of experiment: NCI In Vivo Anticancer Drug Screen. Data for tumor model Sarcoma 180 (subcutaneous) in Swiss mice. Particulars: endpoint: mean tumor weight, higher = larger tumour. As to the method:
The antitumor activity of compounds was measured in mice bearing transplantable tumors. Survival or tumor size were measured and the results are expressed as the measurement made in the treated group (T) divided by the measurement made in the vehicle treated control group (C). The tumor model used in this assay is Sarcoma 180 (subcutaneous) in Swiss mice

Where [1] appears, read: dose: 10.0 mg/kg/injection, schedule: Q#A X014 (sc), vehicle: steriod suspending solution.

In general, T/C refers to the result in the treated group divided by that in the control group, in per cent. `C[C@]12C=CC(=O)C=C1[C@@H](F)C[C@@H]1[C@@H]2[C@@H](O)C[C@@]2(C)[C@H]1CC[C@]2(O)C(=O)CO`: the T/C (dose: 3.5 mg/kg/injection, schedule: Q#A X014 (sc), vehicle: steriod suspending solution) was 85 % of control; the T/C (dose: 7.0 mg/kg/injection, schedule: Q#A X014 (sc), vehicle: steriod suspending solution) is 98 % of control; the T/C under setting [1] was 76 % of control; the T/C (dose: 15.5 mg/kg/injection, schedule: Q#A X014 (sc), vehicle: steriod suspending solution) is 72 % of control; the T/C (dose: 22.5 mg/kg/injection, schedule: Q#A X014 (sc), vehicle: steriod suspending solution) was 67 % of control.

Consider `CO[C@H]1CC[C@@]2(C)C(=CC[C@H]3[C@@H]4C[C@H](O)[C@H](OC)[C@@]4(C)CC[C@@H]32)C1`, for which the T/C by setting is: (dose: 0.25 mg/kg/injection, schedule: Q#A X014 (sc), vehicle: steriod suspending solution) 94 % of control; (dose: 2.5 mg/kg/injection, schedule: Q#A X014 (sc), vehicle: steriod suspending solution) 85 % of control; under setting [1], 122 % of control; (dose: 50.0 mg/kg/injection, schedule: Q#A X014 (sc), vehicle: steriod suspending solution) 97 % of control.

On to `CCCCOP(=S)(N1CC1)N1CC1`, for which the T/C runs as follows: (dose: 0.25 mg/kg/injection, schedule: Q01DX007 (ip), vehicle: saline) 97 % of control; (dose: 0.5 mg/kg/injection, schedule: Q01DX007 (ip), vehicle: saline) 73 % of control; (dose: 0.75 mg/kg/injection, schedule: Q01DX007 (ip), vehicle: other) 124 % of control; (dose: 0.75 mg/kg/injection, schedule: Q01DX007 (ip), vehicle: saline) 86 % of control; (dose: 1.0 mg/kg/injection, schedule: Q01DX007 (ip), vehicle: saline) 70 % of control; (dose: 1.5 mg/kg/injection, schedule: Q01DX007 (ip), vehicle: other) 79 % of control. Also, the T/C runs as follows: (dose: 1.5 mg/kg/injection, schedule: Q01DX007 (ip), vehicle: saline) 70 % of control; (dose: 1.8 mg/kg/injection, schedule: Q01DX007 (ip), vehicle: saline) 33 % of control; (dose: 2.8 mg/kg/injection, schedule: Q01DX007 (ip), vehicle: saline) 9 % of control; (dose: 3.0 mg/kg/injection, schedule: Q01DX007 (ip), vehicle: other) 87 % of control; (dose: 3.0 mg/kg/injection, schedule: Q01DX007 (ip), vehicle: saline) 57 % of control; (dose: 4.3 mg/kg/injection, schedule: Q01DX007 (ip), vehicle: saline) 11 % of control. Further, the T/C is, setting by setting: (dose: 6.0 mg/kg/injection, schedule: Q01DX007 (ip), vehicle: other) 91 % of control; (dose: 6.0 mg/kg/injection, schedule: Q01DX007 (ip), vehicle: saline) 31 % of control; (dose: 6.6 mg/kg/injection, schedule: Q01DX007 (ip), vehicle: saline) 3 % of control; (dose: 7.5 mg/kg/injection, schedule: Q#A X014 (ip), vehicle: saline) 28 % of control; (dose: 10.0 mg/kg/injection, schedule: Q01DX007 (ip), vehicle: other) 103 % of control; (dose: 10.0 mg/kg/injection, schedule: Q01DX007 (ip), vehicle: saline) 17 % of control. Moreover, the T/C is 17 % of control (dose: 10.0 mg/kg/injection, schedule: Q## X000 (ip), vehicle: saline); 2 % of control (dose: 15.0 mg/kg/injection, schedule: Q## X000 (ip), vehicle: saline); 3 % of control (dose: 22.5 mg/kg/injection, schedule: Q## X000 (ip), vehicle: saline).

As for `Cn1cnc([N+](=O)[O-])c1Sc1nc(N)nc2nc[nH]c12`, the T/C reads like this: (dose: 1.35 mg/kg/injection, schedule: Q#A X014 (ip), vehicle: methylcellulose (MC)) 95 % of control; (dose: 3.0 mg/kg/injection, schedule: Q#A X014 (ip), vehicle: methylcellulose (MC)) 31 % of control; (dose: 5.0 mg/kg/injection, schedule: Q#A X014 (ip), vehicle: methylcellulose (MC)) 27 % of control; (dose: 5.15 mg/kg/injection, schedule: Q#A X014 (ip), vehicle: methylcellulose (MC)) 29 % of control; (dose: 7.5 mg/kg/injection, schedule: Q#A X014 (ip), vehicle: methylcellulose (MC)) 22 % of control; (dose: 7.75 mg/kg/injection, schedule: Q#A X014 (ip), vehicle: methylcellulose (MC)) 29 % of control. Further, where the note is “dose: 11.5 mg/kg/injection, schedule: Q#A X014 (ip), vehicle: methylcellulose (MC)”, the T/C was 3 % of control.

Take `O=C1Cc2ccccc2C(=O)N1`: the T/C was 84 % of control (dose: 15.0 mg/kg/injection, schedule: Q#A X014 (ip), vehicle: carboxymethylcellulose (CMC)) and 79 % of control (dose: 30.0 mg/kg/injection, schedule: Q#A X014 (ip), vehicle: carboxymethylcellulose (CMC)).

Turning to `O=C(Nc1ccc([N+](=O)[O-])cc1)Nc1ccc([N+](=O)[O-])cc1` (tested in a mixture with another compound), the T/C is, setting by setting: (dose: 37.0 mg/kg/injection, schedule: Q#A X014 (ip), vehicle: methylcellulose (MC)) 59 % of control; (dose: 55.5 mg/kg/injection, schedule: Q#A X014 (ip), vehicle: methylcellulose (MC)) 60 % of control; (dose: 187.5 mg/kg/injection, schedule: Q#A X014 (ip), vehicle: methylcellulose (MC)) 53 % of control and 50 % of control and 52 % of control; (dose: 250.0 mg/kg/injection, schedule: Q#A X014 (ip), vehicle: methylcellulose (MC)) 44 % of control.

As for `O=c1cccc2n1CC1CNC[C@H]2C1`, the T/C is 92 % of control (dose: 0.78 mg/kg/injection, schedule: Q01DX007 (ip), vehicle: saline); 97 % of control (dose: 1.56 mg/kg/injection, schedule: Q01DX007 (ip), vehicle: saline); 62 % of control and 87 % of control (dose: 3.13 mg/kg/injection, schedule: Q01DX007 (ip), vehicle: saline); 64 % of control (dose: 6.25 mg/kg/injection, schedule: Q01DX007 (ip), vehicle: saline).

As to `CCCn1cnc2c(=S)nc[nH]c21`, the T/C runs as follows: (dose: 43.0 mg/kg/injection, schedule: Q01DX007 (ip), vehicle: carboxymethylcellulose (CMC)) 75 % of control; (dose: 61.0 mg/kg/injection, schedule: Q01DX007 (ip), vehicle: carboxymethylcellulose (CMC)) 44 % of control; (dose: 93.0 mg/kg/injection, schedule: Q01DX007 (ip), vehicle: carboxymethylcellulose (CMC)) 35 % of control; (dose: 140.0 mg/kg/injection, schedule: Q01DX007 (ip), vehicle: carboxymethylcellulose (CMC)) 28 % of control.

`CC1CN1P(=O)(N1CCCC1)N1CC1C` (centres undefined): the T/C (dose: 15.5 mg/kg/injection, schedule: Q#A X014 (ip), vehicle: saline) is 27 % of control and 48 % of control; the T/C (dose: 23.5 mg/kg/injection, schedule: Q#A X014 (ip), vehicle: saline) was 4 % of control; the T/C (dose: 31.0 mg/kg/injection, schedule: Q01DX007 (ip), vehicle: saline) was 77 % of control; the T/C (dose: 47.0 mg/kg/injection, schedule: Q01DX007 (ip), vehicle: saline) was 100 % of control; the T/C (dose: 70.0 mg/kg/injection, schedule: Q01DX007 (ip), vehicle: saline) is 50 % of control.

Consider `CC1(c2ccccc2)O[C@@H]2C[C@H]3[C@@H]4CCC5=CC(=O)C=C[C@]5(C)[C@@]4(F)[C@@H](O)C[C@]3(C)[C@]2(C(=O)CO)O1` (some centres undefined), for which the T/C is 72 % of control (dose: 1.2 mg/kg/injection, schedule: Q01DX007 (sc), vehicle: steriod suspending solution); 70 % of control (dose: 1.7 mg/kg/injection, schedule: Q#A X014 (sc), vehicle: steriod suspending solution); 70 % of control (dose: 2.5 mg/kg/injection, schedule: Q01DX007 (sc), vehicle: steriod suspending solution); 32 % of control (dose: 2.6 mg/kg/injection, schedule: Q#A X014 (sc), vehicle: steriod suspending solution); 52 % of control (dose: 5.0 mg/kg/injection, schedule: Q01DX007 (sc), vehicle: steriod suspending solution); 63 % of control (dose: 6.0 mg/kg/injection, schedule: Q01DX007 (sc), vehicle: steriod suspending solution). The T/C reads like this: (dose: 39.0 mg/kg/injection, schedule: Q01DX007 (sc), vehicle: steriod suspending solution) 28 % of control; (dose: 50.0 mg/kg/injection, schedule: Q01DX007 (sc), vehicle: steriod suspending solution) 14 % of control; (dose: 60.0 mg/kg/injection, schedule: Q01DX007 (sc), vehicle: steriod suspending solution) 33 % of control; (dose: 100.0 mg/kg/injection, schedule: Q01DX007 (sc), vehicle: steriod suspending solution) 7 % of control.

With `Nc1c(Br)cc2c(c1Br)Cc1cc(Cl)ccc1-2`, the T/C is, setting by setting: (dose: 27.0 mg/kg/injection, schedule: Q01DX007 (ip), vehicle: other) 52 % of control; (dose: 41.0 mg/kg/injection, schedule: Q01DX007 (ip), vehicle: other) 44 % of control; (dose: 62.0 mg/kg/injection, schedule: Q01DX007 (ip), vehicle: other) 60 % of control.

Source of the values: PubChem BioAssay AID342 (DTP/NCI, 2004).
